Data as given in ChEMBL document CHEMBL5625260, “Novel xanthone derivatives as potent sirtuin 2 inhibitors” (Bioorg Med Chem Lett, 2024).
Calls of active or inactive are those of the source. No cut-off for these calls is given here.

How the values were obtained:
[1] = target: T1, NAD-dependent protein deacetylase sirtuin-1 (Homo sapiens) (UniProt Q96EB6); experiment: Activation of SIRT1 (unknown origin) at 50 uM relative to control
T1 sequence (whole entry): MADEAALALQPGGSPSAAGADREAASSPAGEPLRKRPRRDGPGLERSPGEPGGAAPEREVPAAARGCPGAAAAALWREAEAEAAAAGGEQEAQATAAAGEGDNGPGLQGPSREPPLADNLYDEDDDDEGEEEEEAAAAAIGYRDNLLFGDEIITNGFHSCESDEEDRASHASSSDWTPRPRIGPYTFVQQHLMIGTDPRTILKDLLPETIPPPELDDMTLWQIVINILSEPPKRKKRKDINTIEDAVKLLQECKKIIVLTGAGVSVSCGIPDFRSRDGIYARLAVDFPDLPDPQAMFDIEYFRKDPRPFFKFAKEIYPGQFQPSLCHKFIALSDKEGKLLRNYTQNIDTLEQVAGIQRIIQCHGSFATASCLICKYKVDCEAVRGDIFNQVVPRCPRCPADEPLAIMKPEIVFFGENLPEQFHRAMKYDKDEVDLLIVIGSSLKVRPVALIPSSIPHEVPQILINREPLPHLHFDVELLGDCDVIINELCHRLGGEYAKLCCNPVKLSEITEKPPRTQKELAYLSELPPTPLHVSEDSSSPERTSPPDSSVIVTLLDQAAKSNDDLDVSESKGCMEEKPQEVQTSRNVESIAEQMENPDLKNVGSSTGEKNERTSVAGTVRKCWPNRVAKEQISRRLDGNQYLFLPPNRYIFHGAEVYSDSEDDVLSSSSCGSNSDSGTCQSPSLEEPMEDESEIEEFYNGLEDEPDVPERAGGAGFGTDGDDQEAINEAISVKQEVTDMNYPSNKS

[2] = Antioxidant activity of compound at 150 to 1000 uM by DPPH assay; format: functional; settings: dose 150-1000 µM
[3] = target: T2, NAD-dependent protein deacetylase sirtuin-2 (Homo sapiens) (UniProt Q8IXJ6); experiment: Inhibition of SIRT2 (unknown origin) at 50 uM relative to control
T2 sequence (whole entry): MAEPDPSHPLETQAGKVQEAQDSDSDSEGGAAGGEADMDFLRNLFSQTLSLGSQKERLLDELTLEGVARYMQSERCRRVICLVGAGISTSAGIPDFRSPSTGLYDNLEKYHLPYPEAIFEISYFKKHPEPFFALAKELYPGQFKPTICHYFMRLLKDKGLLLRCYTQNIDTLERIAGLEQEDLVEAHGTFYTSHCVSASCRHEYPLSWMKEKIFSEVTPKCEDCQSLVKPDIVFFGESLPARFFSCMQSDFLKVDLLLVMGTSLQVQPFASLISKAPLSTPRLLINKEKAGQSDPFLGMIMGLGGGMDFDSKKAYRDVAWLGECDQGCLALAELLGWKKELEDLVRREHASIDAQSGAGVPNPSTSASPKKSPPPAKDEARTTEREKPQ

[4] = target: T3, NAD-dependent protein deacetylase sirtuin-2 (Homo sapiens, UniProt Q8IXJ6); experiment: Inhibition of SIRT2 (unknown origin)
T3 sequence (Q8IXJ6 whole entry): T2 sequence (whole entry)

[5] = target: T4, NAD-dependent protein deacetylase sirtuin-1 (Homo sapiens, UniProt Q96EB6); experiment: Activation of N-terminal His-tagged recombinant human SIRT1 (193 to end residues) expressed in baculovirus infected Sf9 insect cells incubated for 15 to 45 mins by luminescence based assay
T4 sequence (Q96EB6 whole entry): T1 sequence (whole entry)

[6] = target: T4, NAD-dependent protein deacetylase sirtuin-1; experiment: Inhibition of AMC-conjugated recombinant human SIRT1 (379 to 382 residues) using […] substrate incubated for 45 mins by fluorescence based assay
[7] = target: T5, NAD-dependent protein deacetylase sirtuin-3, mitochondrial (Homo sapiens, UniProt Q9NTG7); experiment: Inhibition of AMC-conjugated recombinant human SIRT3 ( 317 to 320 residues) using […] substrate incubated for 45 mins by fluorescence based assay
T5 sequence (Q9NTG7 whole entry): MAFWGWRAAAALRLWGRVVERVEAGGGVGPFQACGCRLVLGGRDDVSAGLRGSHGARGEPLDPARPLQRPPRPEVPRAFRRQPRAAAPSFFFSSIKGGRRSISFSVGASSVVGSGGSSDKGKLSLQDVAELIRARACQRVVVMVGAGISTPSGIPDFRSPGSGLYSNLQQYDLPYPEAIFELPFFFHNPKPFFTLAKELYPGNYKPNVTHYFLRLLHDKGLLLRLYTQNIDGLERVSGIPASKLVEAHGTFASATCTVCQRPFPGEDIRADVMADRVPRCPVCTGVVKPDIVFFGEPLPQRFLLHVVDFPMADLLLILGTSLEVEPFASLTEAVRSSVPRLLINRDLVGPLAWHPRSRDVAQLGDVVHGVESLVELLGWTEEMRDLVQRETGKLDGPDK

[8] = Antioxidant activity of compound at 500 uM by DPPH assay relative to control; format: functional

| Structure (SMILES) | Activity [1] | inhibition [3] | Activity [2] | other results |
| --- | --- | --- | --- | --- |
| COc1ccc(OC)c(CN2CCN(Cc3ccc4oc5c(Cl)cccc5c(=O)c4c3)CC2)c1 | -12.4% | 55.9% | – | – |
| COc1ccccc1N1CCN(Cc2ccc3oc4c(Cl)cccc4c(=O)c3c2)CC1 | -17.1% | 49.5% | inactive | – |
| Cc1ccc(C(=O)Nc2ccc(S(=O)(=O)O)c3cc(S(=O)(=O)O)cc(S(=O)(=O)O)c23)cc1NC(=O)c1cccc(NC(=O)Nc2cccc(C(=O)Nc3cc(C(=O)Nc4ccc(S(=O)(=O)O)c5cc(S(=O)(=O)O)cc(S(=O)(=O)O)c45)ccc3C)c2)c1 [SURAMIN] | – | – | – | IC50 [4]: 24 µM |
| CC(C)=CCc1c(O)c(CC=C(C)C)c2oc3c(O)ccc(O)c3c(=O)c2c1O [GARTANIN] | – | – | – | EC50 [5]: 1.79 µM |
| CC(C)=CCc1c(O)cc2oc3cc(O)c(O)c(CC=C(C)C)c3c(=O)c2c1O | – | – | – | IC50 [6]: 22.4 µM; IC50 [7]: 26.8 µM |

Further lines, with some results ahead:

| Activity [1] | inhibition [3] | Structure (SMILES) | Activity [2] | other results |
| --- | --- | --- | --- | --- |
| -10.3% | 82.1% | COc1ccccc1CNCc1ccc2oc3c(Cl)cccc3c(=O)c2c1 | inactive | – |
| -22.1% | 93.2% | COc1ccccc1CCNCc1ccc2oc3c(Cl)cccc3c(=O)c2c1 | inactive | – |
| -19.5% | 82.7% | COc1ccc(CNCc2ccc3oc4c(Cl)cccc4c(=O)c3c2)cc1OC | inactive | – |
| – | 83% | Oc1ccc(/C=C/c2cc(O)cc(O)c2)cc1 | – | Activity ([1]; filed as activator): 96.6% |
| -117% | 48.5% | COc1cccc(N2CCN(Cc3ccc4oc5c(Cl)cccc5c(=O)c4c3)CC2)c1 | inactive | Activity [8]: 17.9% |
